Results as given in paper PMC5391603, “Identification and functional characterisation of a Schistosoma japonicum insulin-like peptide” (Parasites & Vectors, 2017).
“Also recorded” adds a separate entry of the source.

Columns and labels:
[1] = target: recombinant Schistosoma japonicum insulin-like peptide, C-terminal fragment T31-S130 (S. japonicum); assay: BLI; Octet RED, 25 °C; biotinylated rSjILP (150 ng/μl) immobilised on streptavidin biosensors, exposed to rSjLD1 or rSjLD2 (7, 14, 28, 56, 112 ng/μl); kinetic buffer (1 mM phosphate, 15 mM NaCl, 0.1 mg/ml BSA, 0.002% Tween-20); association 1000 s, dissociation 1000 s; BSA as reference
[2] = ADP assay (ADP hydrolysis/consumption by proteins); format: biochemical; conditions: ADP assay kit, protein 0.13 mg/ml, 20 min incubation, ADP 0, 5, 15, 30 μM
Method: To measure the level of hydrolysis of ADP by the schistosome ILP, ADP assay kits (Sigma-Aldrich) were used to measure ADP levels of recombinant schistosome ILPs after their interaction with different concentrations of ADP. ADP levels in various proteins (0.13 mg/ml) were determined following their incubation for 20 min with different concentrations of ADP (0, 5, 15, 30 μM).

[3] = tested on: S. japonicum IRs (SjIR1 and SjIR2); set-up: method as in PMID 25961574; conditions: ref [18]; cited from earlier work
[4] = tested on: Erk (p44/42 MAPK) in adult S. japonicum; assay: Erk phosphorylation in adult worms, Western blot with anti-phospho-P44/42 MAPK (Erk1/2) antibody; format: cell-based
Excerpt: It had been shown previously that an anti-phospho-P44/42 MAPK (Erk1/2) antibody could recognize exclusively activated (phosphorylated) forms of this kinase in S. mansoni because of the high sequence homology in key phosphorylation sites between kinases from schistosomes and humans, and because phosphorylation at these sites is vital for enzyme activation. […] Worms from the different groups were then collected for SWAP extraction which was undertaken in the presence of HALT protease/phosphatase inhibitor cocktail (ThermoFisher, Waltham, USA). SDS-PAGE/Western blotting was carried out as described above using the Odyssey system. […] An anti-actin antibody (Sigma-Aldrich) (1:150) was used to assess protein-loading differences. OdysseyClassic 3.0 software was used for Western blot quantification.

adult S. japonicum = conditions: in vitro, ref [15], cited from earlier work
Excerpt: The life-cycle of schistosomes involves snail intermediate hosts and definitive mammalian hosts including humans, in whom schistosomes can survive for decades. Remarkably, the highly sophisticated relationship between schistosomes and their mammalian hosts seems to involve exploitation by these parasites of host endocrine and immune signals. By binding many ligands including hormones, growth factors, cytokines, receptor tyrosine kinases (RTKs), which are high-affinity cell surface receptors, can be activated to trigger different signalling cellular cascades for the regulation ...

[5] = target: T1, recombinant ligand domain of S. japonicum insulin receptor 1 (S. japonicum, biotin (NHS-PEO4-biotin kit) where it was immobilised on streptavidin biosensors); assay: BLI
T1 chain: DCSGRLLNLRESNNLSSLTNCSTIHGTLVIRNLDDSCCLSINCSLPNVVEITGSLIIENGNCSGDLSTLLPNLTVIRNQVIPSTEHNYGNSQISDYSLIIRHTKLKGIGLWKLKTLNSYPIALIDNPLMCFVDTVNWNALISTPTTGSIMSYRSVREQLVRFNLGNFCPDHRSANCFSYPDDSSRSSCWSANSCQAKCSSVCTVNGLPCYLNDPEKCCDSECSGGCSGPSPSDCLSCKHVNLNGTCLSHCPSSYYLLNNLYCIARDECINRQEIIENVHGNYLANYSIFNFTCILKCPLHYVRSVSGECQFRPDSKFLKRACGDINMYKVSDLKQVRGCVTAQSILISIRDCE

Molecule: recombinant ligand domain of S. japonicum insulin receptor 2 (domain or fragment)
- Kd [1]: 0.16 nM

Molecule: human insulin: human insulin (Sigma-Aldrich)
- ADP hydrolysis, result in words [2]: no ADP binding ability was observed
- binding of human insulin to SjIR1 and SjIR2, in words [3]: bind strongly with both SjIR1 and SjIR2
- reduction of Erk band intensity compared with worms co-stimulated with rSjILP and insulin ([4]; human insulin only (1 μM), 30 min, t (6) = 31.39, P = 0.001, experiment performed twice): 58%
- Erk phosphorylation (44 kDa band), result in words ([4]; rSjILP 1 μM and/or human insulin 1 μM, 30 min in DMEM, anti-phospho-P44/42 MAPK antibody (1:1,000), experiment performed twice): The Erk band was also detectable; also recorded: more phosphorylated Erk was observed in worms stimulated with human insulin compared with worms cultured without insulin
- reduction of Erk band intensity in worms without human insulin and rSjILP, compared with insulin only ([4]; value is the intensity of untreated worms relative to human insulin only (1 μM), 30 min, t (6) = 4.353, P = 0.049): 30%
- increase of glucose content of adult female S. japonicum (adult S. japonicum; female worms): 2.9 fold
- increase of glucose content of adult male S. japonicum (adult S. japonicum; male worms): 1.7 fold

Molecule: recombinant ligand domain of S. japonicum insulin receptor 1 (domain or fragment)
- Kd [1]: 0.226 nM

B1: recombinant Schistosoma japonicum insulin-like peptide, C-terminal fragment T31-S130 (domain or fragment)
chain: THSLPELQTDYTPINDYPIRMCGNEFLRHLKRVCAIRGIYTPLVRFKRSLEQYYDRILQRGKRFDDLCTLYTIYEPDQVVTKCCCIGCTRSYLEQFCNPS
modifications: biotin (NHS-PEO4-biotin kit) where it was immobilised on streptavidin biosensors
- Kd [5]: 0.255 nM
